Measured values taken from patent US8871741B2, “Inhibition of TNF-α induced activation of NFKB by pentosan polysulfate” (Icahn School of Medicine at Mount Sinai, priority 2010, dated 2014).

Columns and labels:
[1] = system: NF-κB; experiment: NF-κB DNA binding, gel mobility shift assay (EMSA); format: cell-based, mouse; details: proximal tubular cells, PPS 800 μg/ml for ½ hour before TNFα 10 ng/ml, nuclear protein after 1 hour
Description: Additionally, NF-κB DNA binding was examined by gel mobility shift assay (EMSA). Briefly, proximal tubular cells were pre-incubated with or without PPS (800 μg/ml) for ½ hour before the addition of TNFα (10 ng/ml). Nuclear protein was extracted from cells 1 hour after treatment. A NF-κB probe was prepared by annealing complementary single-stranded oligonucleotides with 5′-ACTG overhangs (MWG Biotechnologies, Inc.) and were labeled by filling in with [-^32P]dGTP and [-^32P]dCTP using Klenow enzyme. Labeled probes were purified with Nuctrap purification columns (Roche Applied Science). EMSAs were performed using 10^5 cpm of labeled probe and 10 μg of nuclear extracts/reaction. DNA binding complexes were separated by electrophoresis on a 5% polyacrylamide-Tris/glycine-EDTA gel, which was dried and exposed to X-ray film.

[2] = system: MMP-9; experiment: Zymography of U937 cell supernatants, MMP-9; format: cell-based, human; details: U937 cells stimulated with 10 ng/ml TNF-α, 100 μg/ml PPS; P<0.01
Description: Human pro-monocytic U937 cells were obtained from American Type Culture Collection (Manassas, Va.) and grown in RPMI medium supplemented with 10% FBS. U937 cells were plated in six-well plates at a density of 5×10^6 cells/ml. The cells were then stimulated with 10 ng/ml TNF-α, in the presence or absence of either increasing concentrations of PPS (10-100 μg/ml) or heparin (100 μg/ml), and incubated at 37° C. for 3 hours. Following stimulation, cells were placed in 0.1% BSA-serum-free medium for 16-18 hours. The media was then collected, centrifuged, and supernatants were stored at −80° C. for the assessment of MMP activity. The cell number was determined by direct cell counting.
MMP activity in aortic extracts and conditioned media from monocytes was assessed, as previously described (Jacot T A, et al., Lab Invest. 1996; 75:791-79). Briefly, aortic segments were homogenized and extracted in RIPA buffer (25 mM Tris, pH 7.4, 150 mM KCl, 5 mM EDTA, 1% Nonidet P-40, 0.5% sodium deoxycholate, and 0.1% SDS). Insoluble material was precipitated by centrifugation, and soluble extracts were collected and stored at −20° C. for further analysis. For in vitro experiments, cell supernatants were centrifuged to remove cellular debris, and diluted appropriately to normalize for cell number. […]

[3] = system: ERK1/2; experiment: TNFα stimulated ERK1/2 phosphorylation in proximal tubular cells, Western-blot; format: cell-based, mouse
Description: The activation of NF-κB and mitogen activated protein kinases including p38, JNK (Jun N-terminal kinase), and ERK (extracellular signal regulated kinase) pathways play an essential role in proinflammatory actions of TNFα. Thus, it was examined whether PPS affected the phosphorylation of IκB, ERK, p38, and JNK by TNFα. Proximal tubular cells were allowed to grow to 70% confluency in […] petri-dish. Cell lysates were collected before or 15, 30, 60, and 120 minutes after TNFα treatment (10 ng/ml). Cells in some dishes were pre-incubated with PPS (400 μg/ml) for ½ hour before exposure to TNFα. The levels of phosphorylated IκB, ERK, p38, and JNK were determined by Western-blots. Briefly, equal amounts of protein samples (10-20 μg/lane) were loaded onto SDS-PAGE gels. After electrophoresis, proteins were transferred to nitrocellulose membranes and blotted with antibody against phosphorylated IκB, ERK, p38, or JNK (Cell signaling, Boston, Mass.). After the first analysis, the membranes were stripped to re-probe with antibody against total IκB, ERK, p38 or JNK, and ERK and finally with antibody against β-actin (Cell signaling, Boston, Mass.).

TNFα-induced increase in NF-κB DNA binding activity [1]: nearly completely blocked
Substance: pentosan polysulfate [PPS]
MMP-9 activity, reduction by PPS treatment [2]: 51.70%±10.77% | TNFα-stimulated ERK1/2 phosphorylation [3]: suppressed
